Test results taken from ChEMBL document CHEMBL1201862, “PubChem BioAssay data set” (2004).
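Dose response: 5 concentrations. Exposure: 48 h. Format: 96-well plates. Endpoint: linear interpolation; highest concentration if not reached. GI50: concentration for 50% inhibition of growth.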 Active and inactive are the calls of the source. No stated cut-off is given here; in the data, active = GI50 up to about 1.1 µM and inactive = higher.

How the values were obtained:
Test in all cases: DTP human tumour cell line panel, 48 h
A549 = system: A549
LOX IMVI = system: LOX IMVI
SR = system: SR
UACC-62 = system: UACC-62
OVCAR-3 = system: OVCAR-3
SF-539 = system: SF-539
SF-268 = system: SF-268
SF-295 = system: SF-295
SW-620 = system: SW-620
HCC 2998 = system: HCC 2998
SNB-19 = system: SNB-19
SN12C = system: SN12C
OVCAR-4 = system: OVCAR-4
ACHN = system: ACHN
SK-MEL-5 = system: SK-MEL-5
RXF 393 = system: RXF 393

Measured: GI50

CCCCNc1nc(C#N)c(N)s1
inactive: A549 > 100 µM | LOX IMVI > 100 µM | SR > 100 µM | UACC-62 > 100 µM | OVCAR-3 > 100 µM | SF-539 > 100 µM | SF-268 > 100 µM | SF-295 > 100 µM | SW-620 > 100 µM | HCC 2998 > 100 µM | SNB-19 > 100 µM | SN12C > 100 µM | OVCAR-4 > 100 µM | ACHN > 100 µM

N#Cc1cccc(NC(=O)c2ccc(C(=O)O)c(C(=O)c3ccc(C(=O)O)c(C(=O)Nc4cccc(C#N)c4)c3)c2)c1
inactive: A549 > 100 µM | LOX IMVI > 100 µM | UACC-62 > 100 µM | OVCAR-3 > 100 µM | SF-539 > 100 µM | SF-268 > 100 µM | SF-295 > 100 µM | SK-MEL-5 > 100 µM | SW-620 > 100 µM | SNB-19 > 100 µM | SN12C > 100 µM | OVCAR-4 > 100 µM | RXF 393 > 100 µM

COC(=O)C(=O)C(C(=O)C(=O)Nc1ccc(OC)cc1[N+](=O)[O-])c1nc2ccc([N+](=O)[O-])cc2nc1O (stereo not drawn)
inactive: A549 > 100 µM | LOX IMVI > 100 µM | SR > 100 µM | UACC-62 > 100 µM | OVCAR-3 > 100 µM | SF-268 > 100 µM | SF-295 > 100 µM | SW-620 > 100 µM | HCC 2998 > 100 µM | SNB-19 > 100 µM | SN12C > 100 µM | OVCAR-4 > 100 µM | RXF 393 > 100 µM | ACHN > 100 µM

COC(=O)CCC(NC(=S)N/N=C(\C)c1ccco1)C(=O)OC (stereo not drawn)
inactive: A549 > 100 µM | LOX IMVI > 100 µM | UACC-62 > 100 µM | OVCAR-3 > 100 µM | SF-539 > 100 µM | SF-268 > 100 µM | SF-295 > 100 µM | SK-MEL-5 > 100 µM | SW-620 > 100 µM | HCC 2998 > 100 µM | SNB-19 > 100 µM | SN12C > 100 µM | OVCAR-4 > 100 µM | RXF 393 > 100 µM | ACHN > 100 µM

C1CC[N+]23CCCC[N+]2(C1)CCCC3 (stereo not drawn)
inactive: A549 > 100 µM | SR > 100 µM | UACC-62 > 100 µM | OVCAR-3 > 100 µM | SF-268 > 100 µM | SF-295 > 100 µM | SK-MEL-5 > 100 µM | SW-620 > 100 µM | HCC 2998 > 100 µM | SNB-19 > 100 µM | SN12C > 100 µM | OVCAR-4 > 100 µM | ACHN > 100 µM

C[Si](C)(C)/C=C\CCCN1C(=O)CCC1=O
inactive: A549 > 100 µM | LOX IMVI > 100 µM | SR > 100 µM | UACC-62 > 100 µM | OVCAR-3 > 100 µM | SF-539 > 100 µM | SF-268 > 100 µM | SF-295 > 100 µM | SK-MEL-5 93.8 µM | SW-620 > 100 µM | HCC 2998 > 100 µM | SNB-19 > 100 µM | SN12C > 100 µM | ACHN > 100 µM

COc1ccc2c(c1)[n+]([O-])c(-c1ccc(OC)c(OC)c1)c(N)[n+]2[O-]
inactive: A549 > 100 µM | LOX IMVI > 100 µM | UACC-62 31.1 µM | OVCAR-3 > 100 µM | SF-539 29.4 µM | SF-268 35.2 µM | SF-295 67.1 µM | SK-MEL-5 32.7 µM | SW-620 > 100 µM | HCC 2998 > 100 µM | SNB-19 83.2 µM | SN12C 68.9 µM | OVCAR-4 > 100 µM | ACHN 51.3 µM

Fc1ccc(C2SCc3nc4ccccc4n32)cc1F (stereo not drawn)
inactive: A549 33.6 µM | UACC-62 20.7 µM | OVCAR-3 26.9 µM | SF-539 34 µM | SF-268 50.4 µM | SF-295 40.5 µM | SK-MEL-5 16.8 µM | SW-620 39.4 µM | HCC 2998 37.6 µM | SNB-19 29.6 µM | SN12C 41.7 µM | OVCAR-4 18.2 µM | RXF 393 24.2 µM | ACHN 30 µM

CN(C)CC[N+]1=Nc2cccc3cccc(c23)N1
inactive: A549 44.1 µM | LOX IMVI 24.1 µM | SR 19.8 µM | UACC-62 99.8 µM | OVCAR-3 > 100 µM | SF-539 72.9 µM | SF-268 > 89.9 µM | SF-295 > 100 µM | SK-MEL-5 > 52.8 µM | SW-620 20.2 µM | HCC 2998 > 95.7 µM | SNB-19 > 49.5 µM | SN12C 57.9 µM | OVCAR-4 49.5 µM | ACHN 28.1 µM

Cc1cc([N+](=O)[O-])ccc1NC(=O)C(=O)C(C(=O)c1ccccc1-c1ccccc1)C1OC(=O)c2ccccc21 (stereo not drawn)
inactive: A549 10.8 µM | SR 16.4 µM | UACC-62 4.11 µM | SF-539 9.02 µM | SF-268 21.6 µM | SF-295 19.2 µM | SK-MEL-5 15 µM | SW-620 18 µM | HCC 2998 15.5 µM | SNB-19 3.44 µM | SN12C 15.8 µM | OVCAR-4 26.2 µM | RXF 393 4.85 µM | ACHN 31.3 µM

Nc1ccc(C(=O)NN2C(=O)C(Cl)C2c2cccc(O)c2)cc1 (stereo not drawn)
inactive: A549 19.8 µM | LOX IMVI 3.85 µM | UACC-62 14.8 µM | OVCAR-3 15.8 µM | SF-539 17.1 µM | SF-268 3.34 µM | SF-295 18.3 µM | SK-MEL-5 17.6 µM | SW-620 19.2 µM | HCC 2998 15.8 µM | SNB-19 16.9 µM | SN12C 17.8 µM | OVCAR-4 16.7 µM | ACHN 17.5 µM

Cc1cc(O)nc(NNC(C#N)c2ccc(N(C)C)cc2)n1 (stereo not drawn)
inactive: A549 > 100 µM | LOX IMVI > 100 µM | SR 92.9 µM | UACC-62 > 100 µM | OVCAR-3 > 100 µM | SF-539 > 100 µM | SF-268 > 100 µM | SF-295 > 100 µM | SK-MEL-5 > 100 µM | SW-620 > 100 µM | SN12C > 100 µM | OVCAR-4 > 100 µM | RXF 393 > 100 µM | ACHN > 100 µM

c1ccc(NCn2cnc3ccccc32)cc1
inactive: A549 > 100 µM | LOX IMVI 8.18 µM | UACC-62 7.45 µM | OVCAR-3 > 100 µM | SF-539 > 100 µM | SF-268 74.8 µM | SF-295 > 100 µM | SK-MEL-5 > 100 µM | SW-620 35.6 µM | SNB-19 > 100 µM | SN12C > 100 µM | OVCAR-4 > 100 µM | RXF 393 > 100 µM | ACHN 68.4 µM

Cc1cc2c(c(C(=O)O)c1C)-c1cccc(F)c1C2=O
inactive: A549 > 100 µM | LOX IMVI > 100 µM | UACC-62 > 100 µM | OVCAR-3 > 100 µM | SF-268 > 100 µM | SF-295 > 100 µM | SK-MEL-5 > 100 µM | SW-620 > 100 µM | HCC 2998 > 100 µM | SNB-19 67.8 µM | SN12C > 100 µM | OVCAR-4 > 100 µM | RXF 393 66.7 µM | ACHN > 100 µM

CCOC(=O)C(=Cc1cc(OC)ccc1OC)C(=O)OCC
inactive: A549 6.3 µM | LOX IMVI 3.83 µM | UACC-62 1.83 µM | OVCAR-3 10.7 µM | SF-539 4.1 µM | SF-268 5.36 µM | SF-295 12.4 µM | SK-MEL-5 4.16 µM | SW-620 3.52 µM | HCC 2998 20 µM | SNB-19 11.9 µM | SN12C 5.27 µM | OVCAR-4 7.89 µM | RXF 393 1.83 µM | ACHN 11.9 µM

O=C(CSSCC(=O)OCCS(=O)(=O)Nc1ccc(Br)cc1)OCCS(=O)(=O)Nc1ccc(Br)cc1
inactive: A549 19 µM | LOX IMVI 7.18 µM | UACC-62 13 µM | OVCAR-3 13.1 µM | SF-539 10.2 µM | SF-268 13.9 µM | SF-295 12.2 µM | SK-MEL-5 11.8 µM | SW-620 8.45 µM | HCC 2998 7.8 µM | SNB-19 32.8 µM | SN12C 18.7 µM | OVCAR-4 8.75 µM | RXF 393 3.23 µM | ACHN 18 µM

NC(=O)C12C3C4C1C1C2C3C41C(N)=O (stereo not drawn)
inactive: A549 > 100 µM | LOX IMVI > 100 µM | UACC-62 > 100 µM | OVCAR-3 > 100 µM | SF-539 > 100 µM | SF-268 > 100 µM | SF-295 > 100 µM | SK-MEL-5 > 100 µM | SW-620 > 100 µM | HCC 2998 > 100 µM | SNB-19 > 100 µM | SN12C > 100 µM | OVCAR-4 > 100 µM | RXF 393 > 100 µM | ACHN > 100 µM

Cc1ccccc1-n1c(=O)sc2c(=O)n(-c3ccccc3)c(=S)[nH]c21
inactive: A549 > 100 µM | SR > 100 µM | UACC-62 > 100 µM | OVCAR-3 > 100 µM | SF-539 > 100 µM | SF-268 > 100 µM | SF-295 > 100 µM | SK-MEL-5 > 100 µM | SW-620 > 100 µM | HCC 2998 > 100 µM | SNB-19 > 100 µM | SN12C > 100 µM | OVCAR-4 > 100 µM | RXF 393 > 100 µM | ACHN > 100 µM

NC1C[C@H](n2cc(/C=C/Br)c(=O)[nH]c2=O)C[C@@H]1CO (stereo partly drawn)
inactive: LOX IMVI > 100 µM | UACC-62 > 100 µM | OVCAR-3 > 100 µM | SF-539 > 100 µM | SF-268 > 100 µM | SF-295 > 100 µM | HCC 2998 > 100 µM | SNB-19 > 100 µM | SN12C > 100 µM | OVCAR-4 > 100 µM | RXF 393 > 100 µM | ACHN > 100 µM
